Assay results published in publication PMC6358866 (International Journal of Molecular Sciences, 2019).

What was measured:
[1] = tested on: Staphylococus aureus ATCC 6538 biofilm; experiment: Activity against biofilms on 96-well plates after withdrawal of the antimicrobial (additional 24 h in MHB II); format: cell-based, Staphylococcus aureus; conditions: after withdrawal and additional 24 h in MHB II
Description: Bacterial strains were obtained from the Polish Collection of Microorganisms (Polish Academy of Science, Wroclaw, Poland). Three Gram-positive and two Gram-negative strains linked with CL-related infections were chosen for the study (Staphylococus aureus ATCC 6538, Staphylococcus epidermidis ATCC 14990, Pseudomonas aeruginosa ATCC 9027, Escherichia coli ATCC 25922, and Enterococcus faecalis ATCC 29212). The bacteria were cultured in a Mueller Hinton Broth II (MHB, Biocorp, Warsaw, Poland) overnight, under aerobic conditions at 37 °C. […] Bacterial suspensions were added to 96-well plates (Kartell, Noviglio, Italy) at initial inoculums of ca. 5 × 10^8 CFU/mL and incubated under aerobic conditions with shaking (120 rpm) at 37 °C for 24 h. […] After exposure, the wells were washed three times with PBS and a solution of resazurin (Sigma Aldrich, St. […] This cell viability reagent is metabolized by bacterial dehydrogenases upon contact with living cells. As a result, the blue dye is reduced to a pink resorufin. After 1.5 h of incubation, the absorbance was measured at 570 and 600 nm using a microplate reader (Thermo Fisher Scientific, Waltham, MA, USA). […] The procedure was conducted as described in Section 4.3, with the difference that after exposure to antimicrobials, the wells were washed three times with PBS and pure MHB II was added. The samples were incubated for another 24 h (aerobic conditions, 120 rpm shaking, 37 °C). […] The absorbance was measured at the same wave lengths and metabolic activity was calculated according to the formula given in Section 4.3. The presented results are means of nine results obtained on three different days.

[2] = tested on: Staphylococus aureus ATCC 6538 biofilm; experiment: Effect of the lipopeptide on lens liquids against biofilms on 96-well polystyrene plates; format: cell-based, Staphylococcus aureus; conditions: SA biofilm on polystyrene, lipopeptide alone in PBS, 24 h
Description: Bacterial strains were obtained from the Polish Collection of Microorganisms (Polish Academy of Science, Wroclaw, Poland). Three Gram-positive and two Gram-negative strains linked with CL-related infections were chosen for the study (Staphylococus aureus ATCC 6538, Staphylococcus epidermidis ATCC 14990, Pseudomonas aeruginosa ATCC 9027, Escherichia coli ATCC 25922, and Enterococcus faecalis ATCC 29212). The bacteria were cultured in a Mueller Hinton Broth II (MHB, Biocorp, Warsaw, Poland) overnight, under aerobic conditions at 37 °C. […]
Bacterial suspensions were added to 96-well plates (Kartell, Noviglio, Italy) at initial inoculums of ca. 5 × 10^8 CFU/mL and incubated under aerobic conditions with shaking (120 rpm) at 37 °C for 24 h. […] After 1.5 h of incubation, the absorbance was measured at 570 and 600 nm using a microplate reader (Thermo Fisher Scientific, Waltham, MA, USA). […] The metabolic activity of bacteria in the samples was measured according to the following formula:
Positive controls (100%) were wells with pre-grown biofilms where the MHB II was replaced with pure PBS, while negative controls were wells with pure MHB II (also replaced with PBS). After 24 h of incubation (aerobic conditions, 120 rpm shaking, 37 °C), the solutions were replaced with resazurin in MHB II and the results were read and presented as described in Section 4.3.

(C10)2-KKKK-NH2 [Lipopeptide]
concentration permanently eliminating living bacterial cells ([1]; SA biofilm on polystyrene): 32 mg/L | MBEC II 50 ([1]; lowest concentration giving permanent reduction of metabolic activity by at least 50 ± 5%): 16 µg/mL | MBEC II 90 ([1]; lowest concentration giving permanent reduction of metabolic activity by at least 90 ± 5%): 32 µg/mL | concentration at which highly active against biofilm [2]: 32 mg/L
